Assays:
[1] = system: CYP2E1, CYP3A, CYP2C8, CYP2C19; conditions: cited from earlier work
CYP2C9 = CYP2C9 (Homo sapiens, UniProt P11712); conditions: cited from earlier work
solid tumors = conditions: three times per week, with gemcitabine; cited from earlier work
P-gp = P-gp (Homo sapiens, UniProt P08183); conditions: cited from earlier work
[2] = system: refractory and/or recurrent rhabdomyosarcoma; assay type: in vivo, human; conditions: dose escalation phase; orally 3 times weekly with vinorelbine 25 mg/m2 IV day 1, 8, 15 of 21 day cycles
Procedure: Methods: This is an investigator initiated Phase 1 single center, open-label, dose escalation/expansion clinical trial. A modified intent to treat approach is used for efficacy analysis for a target accrual of 20 subjects in the dose expansion cohort. Eligibility criteria include subjects >/=18 years old (yo) for the phase 1 dose escalation cohort and >/=12 years old for the phase 1 dose expansion cohort with a diagnosis of R/R RMS. Mocetinostat 40 mg, 70 mg or 90 mg was taken orally 3 times weekly with vinorelbine 25 mg/m2 IV on day 1,8, and 15 in 21 day cycles. PEG-filgrastim or biosimilar was added if subject experienced grade 3/4 neutropenia in a prior cycle. The maximum tolerated dose of mocetinostat in the dose escalation phase was 40 mg, which was selected as the dose for expansion cohort. Subjects were treated until disease progression by RECIST 1.1 or unacceptable toxicity.

[3] = human, in vivo; cited from earlier work
[4] = system: follicular lymphoma and diffuse large B cell lymphoma; conditions: cited from earlier work
advanced solid tumors = conditions: cited from earlier work
[5] = system: Rhabdomyosarcoma cell lines; test: IC50 for mocetinostat across individual cell lines from different sarcoma subtypes (FIG. 1); assay type: cell-based
[6] = cited from earlier work
[7] = in vivo; cited from earlier work
[8] = orally three times per week for 2 of every 3 weeks

P-gp, sequence (P08183 whole entry): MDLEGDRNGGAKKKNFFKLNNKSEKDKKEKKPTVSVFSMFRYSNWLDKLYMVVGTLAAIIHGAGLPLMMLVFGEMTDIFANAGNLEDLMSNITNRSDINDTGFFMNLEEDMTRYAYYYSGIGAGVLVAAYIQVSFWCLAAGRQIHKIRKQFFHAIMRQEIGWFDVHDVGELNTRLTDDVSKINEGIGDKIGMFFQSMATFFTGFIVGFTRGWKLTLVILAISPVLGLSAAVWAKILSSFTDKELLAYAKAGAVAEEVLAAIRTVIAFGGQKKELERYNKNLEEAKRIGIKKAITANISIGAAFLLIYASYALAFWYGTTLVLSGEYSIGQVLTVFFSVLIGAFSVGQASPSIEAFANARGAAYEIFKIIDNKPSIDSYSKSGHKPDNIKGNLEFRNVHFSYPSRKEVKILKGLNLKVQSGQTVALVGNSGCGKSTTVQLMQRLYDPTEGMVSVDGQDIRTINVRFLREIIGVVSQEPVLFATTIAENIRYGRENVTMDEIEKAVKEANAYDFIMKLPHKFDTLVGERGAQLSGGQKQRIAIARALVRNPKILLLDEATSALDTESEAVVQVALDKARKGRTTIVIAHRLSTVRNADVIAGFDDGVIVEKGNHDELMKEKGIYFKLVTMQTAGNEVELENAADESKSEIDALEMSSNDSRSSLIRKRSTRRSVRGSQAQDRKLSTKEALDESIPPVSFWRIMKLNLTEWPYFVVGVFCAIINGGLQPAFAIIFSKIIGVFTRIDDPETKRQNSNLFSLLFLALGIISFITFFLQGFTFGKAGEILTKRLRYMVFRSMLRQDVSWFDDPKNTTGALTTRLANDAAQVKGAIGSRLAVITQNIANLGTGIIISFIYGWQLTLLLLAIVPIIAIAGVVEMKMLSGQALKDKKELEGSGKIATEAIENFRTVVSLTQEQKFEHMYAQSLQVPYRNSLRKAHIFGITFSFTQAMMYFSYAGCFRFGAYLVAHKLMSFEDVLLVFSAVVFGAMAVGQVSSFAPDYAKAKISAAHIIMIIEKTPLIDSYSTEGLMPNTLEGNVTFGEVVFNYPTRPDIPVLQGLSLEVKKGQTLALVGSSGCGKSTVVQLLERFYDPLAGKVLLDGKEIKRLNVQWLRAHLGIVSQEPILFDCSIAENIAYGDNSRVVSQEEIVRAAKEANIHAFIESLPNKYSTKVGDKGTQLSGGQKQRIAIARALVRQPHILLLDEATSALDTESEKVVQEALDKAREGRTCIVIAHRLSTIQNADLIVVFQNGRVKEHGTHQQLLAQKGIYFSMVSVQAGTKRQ
CYP2C9, sequence (P11712 whole entry): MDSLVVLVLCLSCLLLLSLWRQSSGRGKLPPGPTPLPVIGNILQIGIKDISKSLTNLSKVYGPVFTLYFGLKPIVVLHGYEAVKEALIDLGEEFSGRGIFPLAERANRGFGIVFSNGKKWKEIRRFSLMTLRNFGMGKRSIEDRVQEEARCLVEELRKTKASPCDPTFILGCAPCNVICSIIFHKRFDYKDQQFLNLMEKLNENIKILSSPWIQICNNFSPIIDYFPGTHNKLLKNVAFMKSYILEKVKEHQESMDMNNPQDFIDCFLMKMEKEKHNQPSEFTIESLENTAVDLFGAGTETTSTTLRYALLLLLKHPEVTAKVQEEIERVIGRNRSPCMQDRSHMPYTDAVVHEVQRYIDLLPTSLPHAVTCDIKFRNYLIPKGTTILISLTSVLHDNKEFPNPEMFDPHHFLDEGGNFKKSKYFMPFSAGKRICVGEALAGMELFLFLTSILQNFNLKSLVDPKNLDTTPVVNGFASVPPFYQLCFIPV

For `Nc1ccccc1NC(=O)c1ccc(CNc2nccc(-c3cccnc3)n2)cc1` [mocetinostat], the metabolizing enzymes [1] is listed as “metabolized by CYP2E1 and CYP3A and possibly by CYP2C8 and CYP2C19”, the CYP2C9 inhibition (CYP2C9) is listed as “strong CYP2C9 inhibitor” and the MTD/RP2D of mocetinostat (solid tumors) is listed as 90 mg. For the same compound, the P-gp interaction (P-gp) was “a substrate and an inhibitor of P-gp”, the “maximum tolerated dose of mocetinostat” value [2] was 40 mg and the Half-life of elimination [3] was “about 10 hours”. For the same compound, the “accumulation with repeated dosing” value [3] was “little to no accumulation”, the “patients with pericardial events considered related to mocetinostat” value ([4]; 5 events: pericardial effusion, pericarditis, cardiac tamponade) was “four” and the “Grade ≥3 treatment-related fatigue” value ([4]; 70-110 mg three times a week) was 23.6%. For the same compound, the “Grade ≥3 treatment-related neutropenia” value ([4]; 70-110 mg three times a week) was 15.3%, the “Grade ≥3 treatment-related thrombocytopenia” value ([4]; 70-110 mg three times a week) was 12.5% and the “patients with Grade ≥3 treatment-related AEs” value ([4]; 72 patients, starting doses 70-110 mg three times a week, 4 week cycles) was 56.9%. For the same compound, the “patients with dose limiting toxicities (DLTs)” value (advanced solid tumors; at the 45 mg/m2/day dose) was 27%, the PK interpatient variability (advanced solid tumors; effect of low pH beverages) was “interpatient variability which improved when mocetinostat was coadministered with low pH beverages” and the “hematologic AEs” value (advanced solid tumors; human, in vivo) was “no hematologic AEs”. The “MTD/RP2D as equivalent fixed dose” value (advanced solid tumors; [8]) was “about 90 mg/day”, the “maximum tolerated dose (MTD)/recommended phase II dose (RP2D)” value (advanced solid tumors; [8]) was 45 mg/m2/day and the IC50 [5] was less than 100 nM.

In the case of `CCC1=C[C@@H]2CN(C1)Cc1c([nH]c3ccccc13)[C@@](C(=O)OC)(c1cc3c(cc1OC)N(C)[C@H]1[C@@](O)(C(=O)OC)[C@H](OC(C)=O)[C@]4(CC)C=CCN5CC[C@]31[C@@H]54)C2` [vinorelbine, methyl (1R,9R,10S,11R,12R,19R)-11-acetyloxy-12-ethyl-4-[(12S,14R)-16-ethyl-12-methoxycarbonyl-1,10-diazatetracyclo[12.3.1.03,11.04,9]octadeca-3(11),4,6,8,15-pentaen-12-yl]-10-hydroxy-5-methoxy-8-methyl-8,16-diazapentacyclo[10.6.1.01,9.02,7.016,19]nonadeca-2,4,6,13-tetraene-10 carboxylate], the “stability of unopened vials” value ([6]; at temperatures up to 25° C. (77° F.)) is listed as “up to 72 hours”, the “time diluted vinorelbine may be used” value ([6]; normal room light, polypropylene syringes or polyvinyl chloride bags at 5-30° C.) is listed as “up to 24 hours” and the “grade II-IV nausea and vomiting” value [7] is listed as less than 10%. For the same compound, the “grade III-IV neurotoxicity” value [7] was “rare”.

— patent US20240390374A1, “MOCETINOSTAT IN COMBINATION WITH CHEMOTHERAPY TO TREAT RHABDOMYOSARCOMA” (The Regents of the University of California, priority 2021, published 2024)
